Laboratory results as given in US20170050957A1, “4-AMINO-6-(HETEROCYCLIC)PICOLINATES AND 6-AMINO-2-(HETEROCYCLIC)PYRIMIDINE-4-CARBOXYLATES AND THEIR USE AS HERBICIDES” (Dow AgroSciences LLC, priority 2013, published 2017).
Where two headings read alike, the source gives them in different places.

Assays:
undesirable vegetation = assay: Herbicidal activity, comparison X is CF with X is CH; assay type: in vivo; conditions: 1.08 and 1.09 vs 1.21 and 1.22; 1.15 and 1.16 vs 1.23 and 1.24; A is A15
[1] = system: Key Grass and Sedge Weeds as well as Grass Crops; assay: Post-emergent Test II herbicidal activity (Table 16); assay type: in vivo; conditions: post-emergence, 336 h, 14 d; for pest or weed control at 35 g/ha: 35 g ai/ha; for pest or weed control at 70 g/ha: 70 g ai/ha; for pest or weed control at 140 g/ha: 140 g ai/ha
Summary of the method: (§1)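 Post-emergence spray; seedlings 7-21 d old, 1st-2nd true leaf; 187 L/ha; serial rates 1×-1/16×; solvent blank controls; subirrigated; visual % injury at 14 d.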

[2] = system: Key Broadleaf Weed and Crop Species; assay: Post-emergent Test II herbicidal activity (Table 15); assay type: in vivo; conditions: post-emergence, 336 h, 14 d; for pest or weed control at 35 g/ha: 35 g ai/ha; for pest or weed control at 70 g/ha: 70 g ai/ha; for pest or weed control at 140 g/ha: 140 g ai/ha
Summary of the method: as §1

wild oats (Avena fatua) = assay: Post-emergent Test I herbicidal activity; assay type: in vivo; conditions: 3.96 Kg ai/ha
Protocol: (§2) Post-emergent Test I Seeds test species were obtained from commercial suppliers and planted into a 5″-round pot containing soil-less media mix (metro-mix 360®, Sun Gro Horticulture). Postemergence treatments were planted 8-12 days prior to application and cultured in a greenhouse equipped with supplemental light sources to provide a 16 h photoperiod at 24-29° C. All pots were surface irrigated. Approximately 10 milligrams (mg) of each compound were dissolved in 1.3 mL acetone-DMSO (97:3, v/v) and diluted with 4.1 mL water-isopropanol-crop oil concentrate (78:20:2, v/v/v) containing 0.02% Triton X-155. Treatments were serial diluted with the above formulation solvent to provide 1.85, 0.926, 0.462 and 0.231 mg/mL of test compound delivered in 2.7 mL/pot (roughly equivalent to 4.0, 2.0, 1.0, and 0.5 kg/ha, respectively). Formulated compounds were applied using a DeVilbiss® compressed air sprayer at 2-4 psi. Following treatment, pots were returned to the greenhouse for the duration of the experiment. All pots were sub-irrigated as need to provide optimum growing conditions. All pots were fertilized one time per week by subirrigating with Peters Peat-Lite Special® fertilizer (20-10-20). Phytotoxicity ratings were obtained 10 days after treatment postemergence applications. All evaluations were made visually on a scale of 0 to 100 where 0 represents no activity and 100 represents complete plant death. Visual assessments of plant injury were made based on growth reduction, discoloration, leaf deformity and necrosis

[3] = system: sunflower (Helianthus annuus); assay: Post-emergent Test I herbicidal activity; assay type: in vivo; conditions: 3.96 Kg ai/ha
Protocol: as §2

[4] = system: barnyardgrass (Echinochloa crus-galli); assay: Post-emergent Test I herbicidal activity; assay type: in vivo; conditions: 3.96 Kg ai/ha
Protocol: as §2

[5] = system: giant foxtail (Setaria faberi); assay: Post-emergent Test I herbicidal activity; assay type: in vivo; conditions: 3.96 Kg ai/ha
Protocol: as §2

[6] = Cyperus esculentus, yellow nutsedge (Cyperus esculentus), read-out: Visual Growth Reduction (%) 14 Days After Application, CYPES
[7] = Echinochloa crus-galli, barnyardgrass (Echinochloa crus-galli), read-out: Visual Growth Reduction (%) 14 Days After Application, ECHCG
[8] = Oryza sativa, rice (Oryza sativa), read-out: Visual Growth Reduction (%) 14 Days After Application, ORYSA
[9] = Setaria faberi, giant foxtail (Setaria faberi), read-out: Visual Growth Reduction (%) 14 Days After Application, SETFA
[10] = Triticum aestivum, wheat, spring (Triticum aestivum), read-out: Visual Growth Reduction (%) 14 Days After Application, TRZAS
[11] = Zea mays, maize, corn (Zea mays), read-out: Visual Growth Reduction (%) 14 Days After Application, ZEAMX
[12] = Abutilon theophrasti, velvetleaf (Abutilon theophrasti), read-out: Visual Growth Reduction (%) 14 Days After Application, ABUTH
[13] = Amaranthus retroflexus, redroot pigweed (Amaranthus retroflexus), read-out: Visual Growth Reduction (%) 14 Days After Application, AMARE
[14] = Brassica napus, oilseed rape, canola (Brassica napus), read-out: Visual Growth Reduction (%) 14 Days After Application, BRSNN
[15] = Chenopodium album, lambsquarters (Chenopodium album), read-out: Visual Growth Reduction (%) 14 Days After Application, CHEAL
[16] = Euphorbia heterophylla, wild poinsettia (Euphorbia heterophylla), read-out: Visual Growth Reduction (%) 14 Days After Application, EPHHL
[17] = Helianthus annuus, sunflower (Helianthus annuus), read-out: Visual Growth Reduction (%) 14 Days After Application, HELAN

With `Nc1c(F)c(-c2ccc3cc[nH]c3c2)nc(C(=O)O)c1Cl` [Compound 1.09] the “activity when X is CF compared with X is CH” value (undesirable vegetation) was “significant increase in activity”, the melting point was 138 to 140 °C and the pest or weed control at 35 g/ha [1, 6] was 30 to 44%. It also gave a pest or weed control at 70 g/ha [1, 6] of 75 to 84%, a pest or weed control at 140 g/ha [1, 6] of 85 to 94% and a pest or weed control at 35 g/ha [1, 7] of 95 to 100%. For the same compound, the pest or weed control at 70 g/ha [1, 7] was 95 to 100%, the pest or weed control at 140 g/ha [1, 7] was 95 to 100% and the pest or weed control at 35 g/ha [1, 8] was 0 to 29%. For the same compound, the pest or weed control at 70 g/ha [1, 8] was 0 to 29%, the pest or weed control at 140 g/ha [1, 8] was 0 to 29% and the pest or weed control at 35 g/ha [1, 9] was 85 to 94%. The pest or weed control at 70 g/ha [1, 9] was 85 to 94%, the pest or weed control at 140 g/ha [1, 9] was 85 to 94% and the pest or weed control at 35 g/ha [1, 10] was 0 to 29%. For the same compound, the pest or weed control at 70 g/ha [1, 10] was 0 to 29%, the pest or weed control at 140 g/ha [1, 10] was 0 to 29% and the pest or weed control at 35 g/ha [1, 11] was 60 to 74%. For the same compound, the pest or weed control at 70 g/ha [1, 11] was 75 to 84%, the pest or weed control at 140 g/ha [1, 11] was 75 to 84% and the pest or weed control at 35 g/ha [2, 12] was 95 to 100%. The pest or weed control at 70 g/ha [2, 12] was 95 to 100%, the pest or weed control at 140 g/ha [2, 12] was 95 to 100% and the pest or weed control at 35 g/ha [2, 13] was 95 to 100%. It also gave a pest or weed control at 70 g/ha [2, 13] of 95 to 100%, a pest or weed control at 140 g/ha [2, 13] of 95 to 100% and a pest or weed control at 35 g/ha [2, 14] of 95 to 100%. For the same compound, the pest or weed control at 70 g/ha [2, 14] was 95 to 100%, the pest or weed control at 140 g/ha [2, 14] was 95 to 100% and the pest or weed control at 35 g/ha [2, 15] was 95 to 100%. It also gave a pest or weed control at 70 g/ha [2, 15] of 95 to 100%, a pest or weed control at 140 g/ha [2, 15] of 95 to 100% and a pest or weed control at 35 g/ha [2, 16] of 85 to 94%. For the same compound, the pest or weed control at 70 g/ha [2, 16] was 95 to 100%, the pest or weed control at 140 g/ha [2, 16] was 95 to 100% and the pest or weed control at 35 g/ha [2, 17] was 95 to 100%. The pest or weed control at 70 g/ha [2, 17] was 95 to 100% and the pest or weed control at 140 g/ha [2, 17] was 95 to 100%.
For `COC(=O)c1nc(-c2ccc3ccn(C)c3c2)c(F)c(N)c1Cl` [Compound 1.10], the “Visual Growth Reduction (%) 10 Days After Application AVEFA” value (wild oats (Avena fatua)) was “G (0-29)”, the “Visual Growth Reduction (%) 10 Days After Application HELAN” value [3] was “A (95-100)” and the “Visual Growth Reduction (%) 10 Days After Application ECHCG” value [4] was “G (0-29)”. For the same compound, the “Visual Growth Reduction (%) 10 Days After Application SETFA” value [5] was “G (0-29)”, the pest or weed control at 35 g/ha [1, 6] was 0 to 29% and the pest or weed control at 70 g/ha [1, 6] was 0 to 29%. It also gave a pest or weed control at 140 g/ha [1, 6] of 0 to 29%, a pest or weed control at 35 g/ha [1, 7] of 0 to 29% and a pest or weed control at 70 g/ha [1, 7] of 0 to 29%. For the same compound, the pest or weed control at 140 g/ha [1, 7] was 0 to 29%, the pest or weed control at 35 g/ha [1, 8] was 0 to 29% and the pest or weed control at 70 g/ha [1, 8] was 0 to 29%. For the same compound, the pest or weed control at 140 g/ha [1, 8] was 0 to 29%, the pest or weed control at 35 g/ha [1, 9] was 0 to 29% and the pest or weed control at 70 g/ha [1, 9] was 0 to 29%. For the same compound, the pest or weed control at 140 g/ha [1, 9] was 0 to 29%, the pest or weed control at 35 g/ha [1, 10] was 0 to 29% and the pest or weed control at 70 g/ha [1, 10] was 0 to 29%. For the same compound, the pest or weed control at 140 g/ha [1, 10] was 0 to 29%, the pest or weed control at 35 g/ha [1, 11] was 0 to 29% and the pest or weed control at 70 g/ha [1, 11] was 0 to 29%. It also gave a pest or weed control at 140 g/ha [1, 11] of 0 to 29%, a pest or weed control at 35 g/ha [2, 12] of 0 to 29% and a pest or weed control at 70 g/ha [2, 12] of 0 to 29%. For the same compound, the pest or weed control at 140 g/ha [2, 12] was 0 to 29%, the pest or weed control at 35 g/ha [2, 13] was 0 to 29% and the pest or weed control at 70 g/ha [2, 13] was 85 to 94%. For the same compound, the pest or weed control at 140 g/ha [2, 13] was 95 to 100%, the pest or weed control at 35 g/ha [2, 14] was 0 to 29% and the pest or weed control at 70 g/ha [2, 14] was 0 to 29%. For the same compound, the pest or weed control at 140 g/ha [2, 14] was 0 to 29%, the pest or weed control at 35 g/ha [2, 15] was 95 to 100% and the pest or weed control at 70 g/ha [2, 15] was 95 to 100%. The pest or weed control at 140 g/ha [2, 15] was 95 to 100%, the pest or weed control at 35 g/ha [2, 16] was 0 to 29% and the pest or weed control at 70 g/ha [2, 16] was 0 to 29%. The pest or weed control at 140 g/ha [2, 16] was 0 to 29%, the pest or weed control at 35 g/ha [2, 17] was 0 to 29% and the pest or weed control at 70 g/ha [2, 17] was 0 to 29%. The pest or weed control at 140 g/ha [2, 17] was 45 to 59%.
